Earlier results on 70 compounds are cited in publication PMC12525602, “Identification of Selective α-Glucosidase Inhibitors via Virtual Screening with Machine Learning” (Molecules, 2025).

SMILES strings stand for the structures.

For one series, the system named is α-glucosidase. The conditions noted are these: Table S5 modeling dataset; activity label 1 = active, 0 = inactive; cited from earlier work.
Take `Brc1cccc(CSc2nnc(COc3cccc4cccnc34)o2)c1` [compound 99]: the activity is 0.

Turning to `CC(C)=CCC1(O)C(O)=C(C(=O)CC(C)C)C(=O)C1(O)C(=O)C=C(C)C` (stereo not shown) [compound 130], the activity is listed as 0.

As to `Clc1ccc(CSc2nnc(COc3cccc4cccnc34)o2)c(Cl)c1` [compound 111], the activity is on record as 0.

In the case of `CC1CCCN(c2ccc(/C=N/Nc3nc(-c4ccc(C#N)cc4)cs3)cc2)C1` (stereo not shown) [compound 106], the activity is recorded as 0.

Turning to `COc1cccc(C(=O)C2C(O)c3ccccc3S(=O)(=O)N2CC(=O)Nc2ccc([N+](=O)[O-])cc2)c1` (stereo not shown) [compound 101], the activity is on record as 0.

As for `O=C(O)C1(O)C[C@@H](O)C(O)[C@H](O)C1` (stereo partly shown) [compound 91], the activity is 0.

Regarding `CCCCCC/C=C\CCCCCCCC(=O)O` [compound 129], the activity is 0.

Take `COC(=O)/C=C/c1ccc(O)c(OC)c1` [compound 127]: the activity is recorded as 0.

With `COc1ccccc1Nc1nnc(-c2cc3cc(C#N)ccc3[nH]2)s1` [compound 102], the activity is reported as 0.

In the case of `O=c1c(O[C@@H]2OC[C@H](O)[C@H](O)[C@H]2O)c(-c2ccc(O)c(O)c2)oc2cc(O)cc(O)c12` [compound 104], the activity is recorded as 0.

For the compound `CCCSc1nnc(COc2cccc3cccnc23)o1` [compound 123], the activity is 0.

Regarding `Fc1ccc(CSc2nnc(COc3cccc4cccnc34)o2)c(F)c1` [compound 108], the activity is listed as 0.

`Fc1ccc(-n2cc(CSc3nnc(COc4cccc5cccnc45)o3)nn2)cc1` [compound 115]: the activity is on record as 0.

For the compound `N#Cc1c(-c2ccc(Cl)cc2)cc(-c2cccc([N+](=O)[O-])c2)c(C#N)c1N` [compound 120], the activity is on record as 0.

On to `O=C(c1ccccc1)c1ccc2nc(-c3ccc(F)cc3)[nH]c2c1` [compound 95], for which the activity is 0.

Take `Clc1ccc(CSc2nnc(COc3cccc4cccnc34)o2)cc1` [compound 121]: the activity was 0.

The series is the same for the next values; noted with them: activity label in the 300-compound modeling dataset (Table S5); 1 = active, 0 = inactive; cited from earlier work.
Take `Cc1ccc(-c2cc(C(F)(F)F)nn2-c2ccc(S(=O)(=O)NC(=O)c3cccc([N+](=O)[O-])c3)cc2)cc1` [compound 200]: the activity is 1.

In the case of `O=C1CC(c2ccc(O)cc2)Oc2cc(O)cc(O)c21` (stereo not shown) [compound 211], the activity is 1.

On to `COc1ccc(OC)c(/C(CSc2nnc3c(n2)[nH]c2ccccc23)=N\c2nnc(-c3cc(Br)ccc3OC)s2)c1` [compound 198], for which the activity was 1.

For `COc1cc(/C=C/C(=O)O)ccc1O/C(=C\c1cc(OC)c(O)c(-c2cc(/C=C/C(=O)O)cc(OC)c2O)c1)C(=O)O` [compound 210], the activity is given as 1.

For the compound `Oc1cc(O)cc(-c2cc3cccc(Cl)c3o2)c1` [compound 212], the activity is listed as 1.

Turning to `Oc1cccc(-c2cc3cccc(Cl)c3o2)c1` [compound 203], the activity is on record as 1.

Consider `N#Cc1ccc2[nH]c(-c3nnc(Nc4ccc(Cl)c(Cl)c4)s3)cc2c1` [compound 193], for which the activity is on record as 1.

Turning to `Fc1ccc(CNc2cccc(-c3nc4ccccc4[nH]3)c2)cc1` [compound 227], the activity is listed as 1.

For `O=C(NNS(=O)(=O)c1ccccc1F)c1cc2cc(F)ccc2[nH]1` [compound 226], the activity is on record as 1.

`Cc1ccc(-c2csc(N/N=C/c3ccc(N4CCC(C)CC4)cc3)n2)cc1` [compound 186]: the activity was 1.

With `COc1cccc(C(=O)C2C(O)c3ccccc3S(=O)(=O)N2CC(=O)Nc2ccccc2Br)c1` (stereo not shown) [compound 187], the activity is given as 1.

Regarding `COc1ccc(/C(CSc2nnc3c(n2)[nH]c2ccccc23)=N\c2nnc(-c3ccccc3[N+](=O)[O-])s2)cc1` [compound 213], the activity was 1.

Turning to `CC(C)(C)c1ccc(-c2csc(N/N=C/c3ccccc3OCc3cc4ccccc4oc3=O)n2)cc1` [compound 215], the activity is listed as 1.

For `CCCCCCCCCCCCCCCC(N)=O` [compound 188], the activity is recorded as 1.

The same series, now with this note: activity label of the 300-compound modeling dataset, Table S5; cited from earlier work.
On to `COc1cc(/C=N/N=C2\C(=O)Nc3ccccc32)ccc1OCc1cn(Cc2ccc(C)cc2)nn1` [compound 253], for which the activity was 1.

As for `O=C(COc1c(I)cc(Cl)c2cccnc12)c1ccc(-c2ccccc2)cc1` [compound 242], the activity was 1.

Take `COc1ccc(/C(CSc2nnc3c(n2)[nH]c2ccccc23)=N\c2nnc(-c3ccc(Cl)c(Cl)c3)s2)cc1` [compound 249]: the activity is given as 1.

Regarding `O=C1C(=NN=Cc2ccc(OCc3cn(Cc4ccc(F)cc4)nn3)cc2)c2ccccc2N1c1ccc(Br)cc1` [compound 262], the activity is 1.

With `O=C(COc1c(I)cc(Cl)c2cccnc12)c1cccc(Br)c1` [compound 268], the activity is recorded as 1.

`Oc1cc(O)cc(-c2cc3cccc(Br)c3o2)c1` [compound 232]: the activity is 1.

As for `COc1ccc2nc3cc(Cl)ccc3c(SCC(=O)NCc3cccc(Cl)c3)c2c1` [compound 266], the activity is 1.

For the compound `O=c1c(O)c(-c2ccc(O)cc2)oc2cc(O)cc(O)c12` [compound 244], the activity is on record as 1.

As to `O=C1C(=NNc2nncs2)c2ccccc2N1Cc1ccc(Cl)cc1` [compound 255], the activity is 1.

`O=C1Nc2ccccc2/C1=N/N=C/c1ccc(OCc2cn(Cc3ccc(F)cc3)nn2)cc1` [compound 271]: the activity was 1.

The same series, now with this note: activity label of the modeling dataset (Table S5), α-glucosidase; 1 = active, 0 = inactive; cited from earlier work.
As for `N[C@@H](Cc1ccccc1)C(=O)O` [compound 39], the activity is 0.

Consider `N#Cc1c(-c2ccc(Cl)cc2)cc(-c2ccco2)c(C#N)c1N` [compound 24], for which the activity is 0.

For `CC1CCN(c2ccc(/C=N/Nc3nc(-c4ccc(C#N)cc4)cs3)cc2)CC1` [compound 22], the activity is 0.

Turning to `N#Cc1c(-c2cccc(Cl)c2)cc(-c2ccco2)c(C#N)c1N` [compound 7], the activity is listed as 0.

Take `Cc1ccc(-c2cc(-c3ccc([N+](=O)[O-])cc3)c(C#N)c(N)c2C#N)cc1` [compound 26]: the activity is listed as 0.

Regarding `O=C(c1ccccc1)c1ccc2nc(-c3ccc(Br)cc3)[nH]c2c1` [compound 8], the activity is on record as 0.

Take `N#Cc1c(-c2cccnc2)cc(-c2ccsc2)c(C#N)c1N` [compound 37]: the activity was 0.

As to `CC1CCCN(c2ccc(/C=N/Nc3nc(-c4ccc(Cl)cc4)cs3)cc2)C1` (stereo not shown) [compound 13], the activity was 0.

As for `N#Cc1c(-c2ccc(Cl)cc2)cc(-c2cccc(Cl)c2)c(C#N)c1N` [compound 12], the activity is 0.

The same series, now with this note: activity label of the modeling dataset, Table S5 (1 = active, 0 = inactive); cited from earlier work.
Turning to `Cc1cccc(C)c1-n1cc(CSc2nnc(COc3cccc4cccnc34)o2)nn1` [compound 58], the activity was 0.

In the case of `N#Cc1ccc2[nH]c(-c3nnc(Nc4ccc([N+](=O)[O-])cc4)s3)cc2c1` [compound 60], the activity is recorded as 0.

`CC(C)c1ccc(S(=O)(=O)NNC(=O)c2cc3cc(F)ccc3[nH]2)cc1` [compound 88]: the activity is listed as 0.

Regarding `CC1OC(Oc2cc(-c3oc4cc(O)cc(O)c4c(=O)c3O)cc(O)c2O)C(O)C(O)C1O` (stereo not shown) [compound 76], the activity is on record as 0.

For the compound `CC1CCCN(c2ccc(/C=N/Nc3nc(-c4ccc(Br)cc4)cs3)cc2)C1` (stereo not shown) [compound 70], the activity is reported as 0.

As to `CC1CCN(c2ccc(/C=N/Nc3nc(-c4ccc(Cl)cc4)cs3)cc2)CC1` [compound 83], the activity is on record as 0.

On to `c1ccc(Cn2cc(CSc3nnc(COc4cccc5cccnc45)o3)nn2)cc1` [compound 54], for which the activity is listed as 0.

On to `O=[N+]([O-])c1ccc(Cn2cc(CSc3nnc(COc4cccc5cccnc45)o3)nn2)cc1` [compound 56], for which the activity is reported as 0.

On to `Clc1cccc(Cl)c1-n1cc(CSc2nnc(COc3cccc4cccnc34)o2)nn1` [compound 71], for which the activity is 0.

As for `O=c1c(O[C@@H]2O[C@H](CO)[C@H](O)[C@H](O)[C@H]2O)c(-c2ccc(O)cc2)oc2cc(O)cc(O)c12` [compound 65], the activity is given as 0.

As to `C[C@@H]1O[C@@H](Oc2c(-c3ccc(O)c(O)c3)oc3cc(O)cc(O)c3c2=O)[C@H](O)[C@H](O)[C@H]1O` [compound 45], the activity was 0.

The series is the same for the next values; noted with them: activity label of the modeling dataset, Table S5; cited from earlier work.
`O=c1c(O[C@@H]2O[C@@H](CO)[C@H](O)[C@H]2O)c(-c2ccc(O)c(O)c2)oc2cc(O)cc(O)c12` [compound 139]: the activity is 0.

As for `O=C1/C(=N\N=C\c2ccc(OCc3cn(Cc4ccccc4)nn3)cc2)c2ccccc2N1c1ccc(Br)cc1` [compound 145], the activity was 0.

In the case of `COc1ccc(Br)cc1-c1nnc(/N=C(/CSc2nnc3c(n2)[nH]c2ccccc23)c2ccc(-c3ccccc3)cc2)s1` [compound 165], the activity is 1.

As to `O=C(CSc1nc2ccccc2cc1-c1nc2ccccc2[nH]1)Nc1cccc(Cl)c1` [compound 149], the activity is 1.

Regarding `O=[N+]([O-])c1ccccc1-c1nnc(/N=C(/CSc2nnc3c(n2)[nH]c2ccccc23)c2cccc([N+](=O)[O-])c2Br)s1` [compound 171], the activity is recorded as 1.

Consider `C[C@@H]1O[C@@H](Oc2c(-c3ccc(O)c(O)c3)oc3cc(O)cc(O)c3c2=O)[C@H](O)[C@H](O)[C@H]1O` [compound 175], for which the activity is on record as 1.

On to `Brc1cc(-c2ccccc2)ccc1/C(CSc1nnc2c(n1)[nH]c1ccccc12)=N\c1nnc(-c2ccc3ccccc3c2)s1` [compound 152], for which the activity is recorded as 1.

The series is the same for the next values; noted with them: activity label of the modeling dataset, sheet Table S5; 1 = active, 0 = inactive; cited from earlier work.
Regarding `Cc1ccc(-c2cc(C(F)(F)F)nn2-c2ccc(S(=O)(=O)NC(=O)c3ccc(C)c([N+](=O)[O-])c3)cc2)cc1` [compound 281], the activity is 1.

For the compound `CC(C)=CCn1c(=O)oc2c(C(=O)/C=C/c3ccc(O)c(F)c3)cccc21` [compound 293], the activity is recorded as 1.

In the case of `Cn1ccnc1SC(=O)c1ccc(-c2cccc(Cl)c2)o1` [compound 298], the activity is reported as 1.
